Experimental data published in the supplement of paper PMC10307832.

Columns and labels:
Test in all cases: relative viability (nuclei count vs DMSO), 5 days (fraction); higher = more cells survive
[1] = compound: C1=CC2=NC=CN=C2C=C1/C=C/3\C(=O)NC(=O)S3 + CC(=O)c1c(C)c2cnc(Nc3ccc(N4CCNCC4)cn3)nc2n(C2CCCC2)c1=O [Palbociclib] (partner 0.5 µM)
Procedure, shortened: (§1)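 One day after seeding in 1536-well plates, lung cancer cell lines were dosed by pin tool. Dosing was either single-drug or a fixed anchor-drug dose plus five library-drug doses (not always all listed) in √10 steps. After 5 days, nuclei were stained in one fix-and-stain step and counted on 4× images, and relative viability is the nuclei count of treated wells over that of vehicle wells, given as the median of duplicate plates.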

BGJ398 + Crizotinib = compound: CCN1CCN(c2ccc(Nc3cc(N(C)C(=O)Nc4c(Cl)c(OC)cc(OC)c4Cl)ncn3)cc2)CC1 [BGJ398] + C[C@@H](Oc1cc(-c2cnn(C3CCNCC3)c2)cnc1N)c1c(Cl)ccc(F)c1Cl [Crizotinib] (partner 1 µM)
Procedure, shortened: as §1

[2] = compound: C1=CC2=NC=CN=C2C=C1/C=C/3\C(=O)NC(=O)S3 + NC(=O)Nc1cc(-c2cccc(F)c2)sc1C(=O)N[C@H]1CCCNC1 [AZD7762] (partner 0.2 µM)
Procedure, shortened: as §1

BGJ398 + Decitabine = compound: CCN1CCN(c2ccc(Nc3cc(N(C)C(=O)Nc4c(Cl)c(OC)cc(OC)c4Cl)ncn3)cc2)CC1 [BGJ398] + Nc1ncn([C@H]2C[C@H](O)[C@@H](CO)O2)c(=O)n1 [Decitabine] (partner 2 µM)
Procedure, shortened: as §1

| Cell Line | relative viability ([1]; first compound 0.02 µM) | relative viability ([1]; first compound 0.06325 µM) | relative viability ([1]; first compound 0.2 µM) | relative viability ([1]; first compound 0.6325 µM) | relative viability ([1]; first compound 2 µM) | relative viability (BGJ398 + Crizotinib; first compound 0.01 µM) | relative viability (BGJ398 + Crizotinib; first compound 0.03162 µM) | relative viability (BGJ398 + Crizotinib; first compound 0.1 µM) | relative viability (BGJ398 + Crizotinib; first compound 0.3162 µM) | relative viability (BGJ398 + Crizotinib; first compound 1 µM) | relative viability ([2]; first compound 0.02 µM) | relative viability ([2]; first compound 0.06325 µM) | relative viability ([2]; first compound 0.2 µM) | relative viability ([2]; first compound 0.6325 µM) | relative viability ([2]; first compound 2 µM) | relative viability (BGJ398 + Decitabine; first compound 0.01 µM) | relative viability (BGJ398 + Decitabine; first compound 0.03162 µM) | relative viability (BGJ398 + Decitabine; first compound 0.1 µM) | relative viability (BGJ398 + Decitabine; first compound 0.3162 µM) | relative viability (BGJ398 + Decitabine; first compound 1 µM) |
| --- | --- | --- | --- | --- | --- | --- | --- | --- | --- | --- | --- | --- | --- | --- | --- | --- | --- | --- | --- | --- |
| BEN | 0.491 | 0.422 | 0.492 | 0.475 | 0.448 | 0.735 | 0.871 | 0.893 | 0.81 | 0.797 | 0.727 | 0.701 | 0.842 | 0.627 | 0.497 | 0.604 | 0.688 | 0.796 | 0.681 | 0.591 |
| EMC-BAC-2 | 0.496 | 0.568 | 0.54 | 0.498 | 0.384 | 0.726 | 0.816 | 0.798 | 0.746 | 0.669 | 1.11 | 1.18 | 1.21 | 1.08 | 0.651 | 0.96 | 1.03 | 0.97 | 0.915 | 0.932 |
| LU99A | 0.444 | 0.389 | 0.439 | 0.398 | 0.276 | 0.532 | 0.49 | 0.595 | 0.525 | 0.479 | 0.392 | 0.352 | 0.369 | 0.36 | 0.223 | 0.776 | 0.763 | 0.735 | 0.756 | 0.68 |
| ABC-1 | 0.75 | 0.699 | 0.726 | 0.662 | 0.645 | 1.05 | 1.36 | 1.19 | 0.925 | 1.42 | 0.696 | 1.23 | 1.1 | 0.819 | 0.957 | 1.17 | 0.955 | 0.966 | – | 1.18 |
| NCI-H2170 | 0.35 | 0.448 | 0.405 | 0.374 | 0.374 | 1.09 | 1.22 | 1.29 | 1.25 | 1.31 | 0.849 | 0.866 | 0.888 | 0.766 | 0.874 | 0.434 | 0.453 | 0.466 | 0.456 | 0.499 |
| NCI-H2347 | 0.456 | 0.382 | 0.415 | 0.443 | 0.429 | 0.593 | 0.878 | 0.728 | 0.962 | 0.698 | 0.773 | 0.692 | 0.778 | 0.745 | 0.704 | 0.608 | 0.621 | 0.612 | 0.621 | 0.563 |
| NCI-H1993 | 0.623 | 0.68 | 0.58 | 0.603 | 0.331 | 0.866 | 0.794 | 0.912 | 0.959 | 0.922 | 0.772 | 0.801 | 0.963 | 0.538 | 0.432 | 0.59 | 0.624 | 0.582 | 0.696 | 0.576 |
| NCI-H322M | 0.553 | 0.491 | 0.477 | 0.454 | 0.455 | 1.04 | 0.77 | 0.956 | 0.961 | 1.1 | 0.559 | 0.598 | 0.607 | 0.51 | 0.498 | 0.755 | 0.723 | 0.771 | 0.602 | 0.833 |
| NCI-H838 | 0.217 | 0.25 | 0.233 | 0.179 | 0.17 | 0.804 | 0.837 | 0.781 | 0.782 | 0.652 | 0.915 | 0.915 | 0.914 | 0.861 | 0.685 | 0.389 | 0.463 | 0.552 | 0.463 | 0.378 |
| HARA | 0.27 | 0.261 | 0.241 | 0.213 | 0.238 | 0.953 | 1.06 | 1.04 | 1.02 | 1.07 | 0.255 | 0.209 | 0.402 | 0.276 | 0.493 | 0.587 | 0.412 | 0.389 | 0.371 | 0.38 |
| NCI-H2087 | 0.195 | 0.229 | 0.215 | 0.268 | 0.222 | 0.923 | 0.831 | 0.865 | 0.911 | 0.863 | 1.14 | 1.36 | 1.21 | 1.21 | 1.26 | 0.178 | 0.288 | 0.263 | 0.325 | 0.234 |
| NCI-H1437 | 0.306 | 0.297 | 0.328 | 0.305 | 0.277 | 0.91 | 0.924 | 0.941 | 1.02 | 0.877 | 1.18 | 1.11 | 1.09 | 1.09 | 0.609 | 0.59 | 0.532 | 0.606 | 0.598 | 0.515 |
| NCI-H1792 | 0.652 | 0.471 | 0.663 | 0.595 | 0.425 | 0.939 | 0.999 | 1.08 | 0.99 | 0.93 | 0.675 | – | 0.642 | 0.667 | 0.348 | 0.476 | 0.533 | 0.568 | 0.474 | 0.441 |
| ChaGo-K-1 | 0.888 | 0.69 | 0.971 | 0.917 | 0.947 | 1.09 | 1.18 | 1.21 | 0.991 | 1.05 | 0.799 | 0.821 | 0.905 | 0.791 | 0.83 | 0.503 | 0.477 | 0.562 | 0.558 | 0.537 |
| NCI-H650 | 0.346 | 0.336 | 0.36 | 0.344 | 0.275 | 0.57 | 0.791 | 0.808 | 0.857 | 0.727 | 0.866 | 1.06 | 1.17 | 0.959 | 0.69 | 0.356 | 0.318 | 0.398 | 0.312 | 0.359 |
| LK-2 | 0.593 | 0.767 | 0.619 | 0.665 | 0.24 | 0.206 | 0.227 | 0.214 | 0.224 | 0.231 | 0.43 | 0.538 | 0.466 | 0.4 | 0.14 | 0.234 | 0.262 | 0.222 | 0.157 | 0.137 |
